Assay results: US8735556B2, “Sensitive and generic antibodies and multiple applications” (Randox Laboratories Limited, priority 2011, dated 2014)
In brackets after ≈: the same amount, converted by molar mass. Read-outs that look alike come from different tables or passages of the source.

What was measured:
[1] = system: antiserum raised to Immunogen II; test: Competitive ELISA, antibody characterisation; type: binding, sheep; conditions: for % Cross-reactivity: CR based on 100% for carbamazepine, IC50 carbamazepine/IC50 CR x 100; for IC50: antiserum raised to Immunogen II, detecting agent derived from Hapten-A, competitive assay format
Procedure: The antibody titre is evaluated by coating a microtitre plate (Thermo Fisher Scientific NUNC, 468667) with antibody (125 μl/well) in coating buffer (10 mM Tris pH 8.5) at 37° C. for 2 hours. The plate is then washed 4 times over 10 minutes with working strength TBST. 50 μl of sample/standard (Carbamazepine, Sigma C4024) is added to the appropriate wells in triplicate, followed by 75 μl of hapten-HRP conjugate and incubated at 25° C. for 1 hour. The plate is then washed and 125 μl of TMB (Randox, 4380-15) added to each well and left at room temperature for 20 mins in the dark. The reaction is stopped using 125 μl of 0.2M sulphuric acid. The absorbances are read at 450 nm with an ELISA microplate reader (BIO-TEK Instruments, Elx800) and the means calculated. Antibody sensitivity can then be determined. […] The immunogenic mixture (1 ml) was administered to adult sheep on a monthly basis to provide target-specific polyclonal antisera. IgG was extracted from the antisera via caprylic acid/ammonium sulphate precipitation of immunoglobulin. A microtitre plate (Thermo Fisher Scientific NUNC, 468667) was coated with antibody (125 μl/well) in coating buffer (10 mM Tris pH 8.5) at 37° C. for 2 hours. […] The plate was then washed and 125 μl of TMB (Randox, 4380-15) was added to each well and left at room temperature for 20 mins in the dark. The reaction was stopped using 125 μl of 0.2M sulphuric acid. The absorbances were read at 450 nm with an ELISA microplate reader (BIO-TEK Instruments, Elx800) and the means calculated. Antibody specificity and sensitivity were then determined. […] The results of this study are presented in Table 2, cross-reactivity being calculated according to the following formula: % CR=IC50. carbamazepine/IC50. CR×100 […] CR is the concentration of carbamazepine/metabolites/structurally-related molecules that causes 50% displacement of signal.

[2] = cited from earlier work
[3] = system: monoclonal antibody of CBZ immunoassay; conditions: cited from earlier work
[4] = system: Siemens ADVIA carbamazepine immunoassay; conditions: cited from earlier work
[5] = system: Beckman Coulter (BC) carbamazepine immunoassay; conditions: Beckman Coulter BC analyzers; cited from earlier work
[6] = cited from earlier work; remark: listed apart in the source
[7] = system: Abbott Diagnostics Axsym carbamazepine immunoassay; conditions: cited from earlier work
[8] = system: Roche Diagnostics Online TDM carbamazepine immunoassay; conditions: at 6 μg/ml of carbamazepine; cited from earlier work

SMILES	% Cross-reactivity [1]	IC50 [1]	Cross-reactivity [5] [%]	also measured
NC(=O)N1c2ccccc2C(O)C(O)c2ccccc21 (centres unmarked) [10,11-diOH-CBZ, 10,11-dihydro-10,11-dihydroxycarbamazepine]	14.00%	15.269 ng/mL (≈ 0.0565 µM)	–	major urinary excretory product ([2]; of CBZ, urine): 80%; Cross-reactivity [3]: negligible
CN(C)CCC=C1c2ccccc2CCc2ccccc21 [Amitriptyline, amitriptyline]	<<1.10%	>>200 ng/ml	18.6	Cross-reactivity [4]: 5.2%
NC(=O)N1c2ccccc2C=Cc2ccccc21 [CBZ, carbamazepine]	100.00%	2.135 ng/mL (≈ 0.00904 µM)	–	half-life ([2]; in patients): 18 to 65 h; toxic value ([6]; free carbamazepine): > 4.00 µg/mL; toxic value ([6]; total carbamazepine): greater than 12.00 μg/ml
NC(=O)N1c2ccccc2C2OC2c2ccccc21 (centres unmarked) [CBZ-E, carbamazepine-10,11-epoxide]	68.30%	3.125 ng/mL (≈ 0.0124 µM)	7.4	Cross-reactivity [7]: ≦83.0%; Cross-reactivity [8]: 14.0%; Cross-reactivity [4]: 21.8%
CNCCCN1c2ccccc2CCc2ccccc21 [Desipramine]	–	–	–	Cross-reactivity [7]: ≦540.0%
CN1C(=O)CN=C(c2ccccc2)c2cc(Cl)ccc21 [Diazepam]	–	–	4.8	–
NC(=O)N1c2ccccc2CC(O)c2ccccc21 (centres unmarked) [Hapten 10-OH-CBZ, 10,11-dihydro-10-hydroxycarbazepine]	67.40%	3.167 ng/mL (≈ 0.0125 µM)	–	Cross-reactivity [8]: 1.2%; Cross-reactivity [3]: negligible
CN(C)CCCN1c2ccccc2CCc2ccccc21 [Imipramine, imipramine]	<<1.10%	>>200 ng/ml	5.6	–
CNCCC=C1c2ccccc2CCc2ccccc21 [Nortryptyline]	–	–	17.2	Cross-reactivity [4]: 5.2%
NC(=O)N1c2ccccc2CC(=O)c2ccccc21 [Oxcarbazepine, oxcarbazepine]	299.00%	0.714 ng/mL (≈ 0.00283 µM)	–	Cross-reactivity [8]: 1.0%; Cross-reactivity [3]: negligible
c1ccc2c(c1)Nc1ccccc1S2 [Phenothiazine]	–	–	8.6	–
